In patent US6376551B1, “Treatment of chronic fatigue syndrome” (Knoll Pharmaceutical Company, priority 1999, dated 2002):

Assays:
[1] = target: [3H]Noradenaline reuptake in rat brain tissue; experiment: in vitro [3H]noradrenaline reuptake inhibition in rat brain tissue; assay type: biochemical; details: means of >3 separate determinations
[2] = target: [3H]Dopamine reuptake in rat brain tissue; experiment: in vitro [3H]dopamine reuptake inhibition in rat brain tissue; assay type: biochemical; details: means of >3 separate determinations

SMILES | Ki [1] | Ki [2]
CC(NC(C)(C)C)C(=O)c1cccc(Cl)c1 (stereo not shown) [Bupropion] | 2590 nM | 409 nM
COc1ccc(C(CN(C)C)C2(O)CCCCC2)cc1 (stereo not shown) [Venlafaxine] | 196 nM | 2590 nM
